Reference: the CombiSolv-Exp solvation set (Vermeire and Green 2021)

Test: solvent given as SMILES

c1ccc2ccccc2c1
Conditions | solvation free energy, 298 K [kcal/mol]
in C1CCOC1 | -8.21
in C1COCCO1 | -7.98
in CC(=O)OCC(C)C | -7.7
in CC(C)(C)O | -6.85
in CC(C)=O | -7.84
in CC(C)CC(C)(C)C | -6.92
in CC(C)CO | -7.09
in CC(C)O | -6.9
in CCC(C)O | -6.88
in CCCCCC | -7.24
in CCCCCCC | -7.22
in CCCCCCCCC=CCCCCCCCC(=O)OCC(COC(=O)CCCCCCCC=CCCCCCCCC)OC(=O)CCCCCCCC=CCCCCCCCC | -7.56
in CCCCCCCCO | -7.08
in CCCCCCO | -7.12
in CCCCCO | -6.89
in CCCCO | -7.09
in CCCO | -7.08
in CCO | -7.08
in CCOC(C)=O | -7.78
in CN1CCCC1=O | -8.08
in CN(C)C=O | -7.95
in CO | -7.01
in Cc1ccc(C)cc1 | -7.88
in Cc1cccc(C)c1 | -7.86
in Cc1ccccc1C | -7.85
in ClC(Cl)(Cl)Cl | -7.63
in ClCCCl | -8.02
in ClCCl | -8.1
in Clc1ccccc1 | -7.87
in O | -2.37
in O=C1CCCCC1 | -7.72

CC1=CCC2C(C)=CCC(C(C)C)C2C1 (centres undefined)
Conditions | solvation free energy, 298 K [kcal/mol]
in O | -0.38

Nc1ccc(S(=O)(=O)NC(=O)c2ccccc2)cc1
Conditions | solvation free energy, 298 K [kcal/mol]
in O | -18.1

ClC1C(Cl)C(Cl)C(Cl)C(Cl)C1Cl (centres undefined)
Conditions | solvation free energy, 298 K [kcal/mol]
in CCCCCCCCC=CCCCCCCCC(=O)OCC(COC(=O)CCCCCCCC=CCCCCCCCC)OC(=O)CCCCCCCC=CCCCCCCCC | -11.2
in CCCCCCCCO | -10.9

CC(C)C(C)C
Conditions | solvation free energy, 298 K [kcal/mol]
in C=CCCCCCCCCCCCCCC | -3.31
in CC#N | -2.4
in CCCCCCCCCCCCCCCC | -3.41
in CCCCCCCCCCCCO | -3.07
in CCCCCO | -3.15
in CCCCO | -3.07
in O | 2.36

CCOC(=O)OCC
Conditions | solvation free energy, 298 K [kcal/mol]
in COC(C)(C)C | -5.35
in ClC(Cl)(Cl)Cl | -5.78
in O | -3.28

CC1CCCC(C)(C)C1 (centres undefined)
Conditions | solvation free energy, 298 K [kcal/mol]
in O | 2.23

CC1=CC2C(CCC(C)=CCC1)C2(C)C (centres undefined)
Conditions | solvation free energy, 298 K [kcal/mol]
in O | -0.52

ClC1CCCCC1
Conditions | solvation free energy, 298 K [kcal/mol]
in O | -0.93

CC(C)(C)C(=O)CC(=O)C(C)(C)C
Conditions | solvation free energy, 298 K [kcal/mol]
in O | -4.43

COc1ccccc1N
Conditions | solvation free energy, 298 K [kcal/mol]
in O | -6.12

Cc1cccnc1C
Conditions | solvation free energy, 298 K [kcal/mol]
in O | -4.82

CC=CC=O
Conditions | solvation free energy, 298 K [kcal/mol]
in O=CN1CCOCC1 | -4.69

CCNc1nc(Cl)nc(NCC)n1
Conditions | solvation free energy, 298 K [kcal/mol]
in O | -10.1

FC(F)(F)F
Conditions | solvation free energy, 298 K [kcal/mol]
in Brc1ccccc1 | 1.57
in C1CCOC1 | 1
in C1COCCO1 | 1.38
in CC(C)(C)O | 0.8
in CC(C)CC(C)(C)C | 0.56
in CC(C)CO | 1
in CCC(C)O | 1.01
in CCCCCC | 0.49
in CCCCCCC | 0.62
in CCCCCCCC | 0.72
in CCCCCCCC(=O)OCC(COC(=O)CCCCCCC)OC(=O)CCCCCCC | 1.4
in CCCCCCCCC | 0.8
in CCCCCCCCCC | 0.86
in CCCCCCCCCCC | 0.92
in CCCCCCCCCCCC | 0.97
in CCCCCCCCCCCCC | 1.02
in CCCCCCCCCCCCCC | 1.06
in CCCCCCCCCCCCCCC | 1.1
in CCCCCCCCCCCCCCCC | 1.11
in CCCCCCCCCCCO | 1.39
in CCCCCCCCCCO | 1.36
in CCCCCCCCCO | 1.32
in CCCCCCCCO | 1.27
in CCCCCCCO | 1.25
in CCCCCCO | 1.21
in CCCCCO | 1.16
in CCCCO | 1.1
in CCCO | 1.04
in CCO | 0.98
in CN1CCCC1=O | 1.8
in CN(C)C=O | 1.56
in CO | 1
in Cc1ccc(C)cc1 | 1.11
in Cc1cccc(C)c1 | 1.13
in Cc1ccccc1C | 1.21
in ClC(Cl)(Cl)Cl | 0.82
in Clc1ccccc1 | 1.3
in O | 3.13
in O=C1CCCC1 | 1.36
in O=C1CCCCC1 | 1.41

CCCC(C)CC (centres undefined)
Conditions | solvation free energy, 298 K [kcal/mol]
in C=CCCCCCCCCCCCCCC | -4.01

OC(Cl)CCCl (centres undefined)
Conditions | solvation free energy, 298 K [kcal/mol]
in CCCCCCCCCCO | -7

CCCCCCCCCCCCCCCCCCCC
Conditions | solvation free energy, 298 K [kcal/mol]
in CC(=O)N(C)C | -13.6
in CC(C)(C)O | -12.4
in CCC(C)=O | -12.6
in CCCCCCCCC=CCCCCCCCC(=O)OCC(COC(=O)CCCCCCCC=CCCCCCCCC)OC(=O)CCCCCCCC=CCCCCCCCC | -12.5
in CCCCOC(C)=O | -12.9
in CCO | -11.4
in CN(C)C=O | -13.6
in COC(C)(C)C | -13.5
in O | 4.52

CC(C)CCC(C)C
Conditions | solvation free energy, 298 K [kcal/mol]
in Brc1ccccc1 | -4.53
in C1CCCCC1 | -5.02
in C1CCOC1 | -4.85
in C1COCCO1 | -4.04
in C=CCCCC | -4.95
in C=CCCCCCC | -4.85
in C=CCCCCCCCC | -4.75
in CC1COC(=O)O1 | -2.64
in CC#N | -3.31
in CC(=O)N(C)C | -3.54
in CC(=O)O | -3.59
in CC(=O)c1ccccc1 | -3.84
in CC(C)=O | -4.03
in CC(C)CC(C)(C)C | -4.84
in CC(C)CCCC(C)CCCC(C)CCCCC(C)CCCC(C)CCCC(C)C | -4.35
in CC(C)CCO | -4.21
in CC(C)O | -3.99
in CC(C)OC(C)C | -4.85
in CCBr | -4.97
in CCC#N | -3.76
in CCC(C)=O | -4.29
in CCCC#N | -4
in CCCC(=O)OCC | -4.52
in CCCC(C)=O | -4.38
in CCCCC | -5.01
in CCCCCC | -4.97
in CCCCCC(C)=O | -4.4
in CCCCCCC | -4.9
in CCCCCCCC | -4.83
in CCCCCCCCC | -4.79
in CCCCCCCCCC | -4.74
in CCCCCCCCCCCC | -4.63
in CCCCCCCCCCCCCCCC | -4.53
in CCCCCCCCO | -4.21
in CCCCCCOC(C)=O | -4.48
in CCCCO | -4.1
in CCCCOC(C)=O | -4.46
in CCCCOCCCC | -4.81
in CCCO | -4.07
in CCN(CC)CC | -4.89
in CCO | -3.92
in CCOC(C)=O | -4.31
in CCOCC | -4.91
in CCOCCOCCOCC | -4.23
in CCOc1ccccc1 | -4.31
in CN1CCCC1=O | -3.42
in CN(C)C=O | -3.35
in CN(C)P(=O)(N(C)C)N(C)C | -3.84
in CNC=O | -2.97
in CO | -3.55
in COC(C)=O | -4.11
in COCCO | -3.43
in COc1ccccc1 | -4.22
in CS(C)=O | -2.41
in Cc1ccc(C)cc1 | -4.77
in Cc1ccccc1 | -4.76
in Cc1ccccn1 | -4.33
in ClC(Cl)(Cl)Cl | -5.01
in ClC(Cl)Cl | -4.88
in ClCCCl | -4.29
in ClCCl | -4.64
in Clc1ccccc1 | -4.75
in FC(F)(F)C(F)(F)C(F)(F)C(F)(F)C(F)(F)C(F)(F)C(F)(F)C(F)(F)F | -3.22
in FC(F)(F)C(F)(F)C(F)(F)C(F)(F)C(F)(F)C(F)(F)F | -3.3
in Fc1ccccc1 | -4.66
in ICI | -2.71
in N#Cc1ccccc1 | -3.85
in Nc1ccccc1 | -3.11
in O | 2.78
in O=C1CCCCC1 | -4.2
in O=C1CCCO1 | -2.85
in OCc1ccccc1 | -3.33
in S=C=S | -4.94
in c1ccccc1 | -4.76
in c1ccncc1 | -4.06

O=C(O)Cc1ccccc1
Conditions | solvation free energy, 298 K [kcal/mol]
in C=CCCCCCCC=C | -7.39
in CCOC(C)=O | -11.1
in O | -8.74

CC(C)Cl
Conditions | solvation free energy, 298 K [kcal/mol]
in C=CCCCCCCCCCCCCCC | -2.78
in O | -0.23
